For 18 compounds, IC50 and inhibition results are on record in ChEMBL document CHEMBL4616647, “PTP1B-Inhibiting Branched-Chain Fatty Acid Dimers from Eremophila oppositifolia subsp. angustifolia Identified by High-Resolution PTP1B Inhibition Profiling and HPLC-PDA-HRMS-SPE-NMR Analysis” (J Nat Prod, 2020).

The target of assay [1] is T1, Tyrosine-protein phosphatase non-receptor type 1 (Homo sapiens, UniProt P18031).
T1 sequence (P18031 whole entry): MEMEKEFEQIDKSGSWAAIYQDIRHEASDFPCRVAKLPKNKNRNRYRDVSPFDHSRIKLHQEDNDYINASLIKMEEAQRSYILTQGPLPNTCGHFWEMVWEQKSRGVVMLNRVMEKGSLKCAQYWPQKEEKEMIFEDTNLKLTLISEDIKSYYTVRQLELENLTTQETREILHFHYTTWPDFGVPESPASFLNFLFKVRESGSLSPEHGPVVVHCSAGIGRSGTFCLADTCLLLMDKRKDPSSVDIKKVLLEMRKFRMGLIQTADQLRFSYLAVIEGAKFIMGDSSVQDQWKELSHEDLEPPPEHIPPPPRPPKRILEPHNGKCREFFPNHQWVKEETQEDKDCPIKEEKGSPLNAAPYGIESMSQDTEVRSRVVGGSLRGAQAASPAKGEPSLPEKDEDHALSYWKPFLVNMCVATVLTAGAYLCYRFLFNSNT
Put plainly: Inhibition of human recombinant PTP1B (1 to 322 residues) expressed in Escherichia coli using pNPP as substrate preincubated for 10 mins followed by substrate addition and measured after every 30 secs for 10 mins by photometric method.

For assay [2], the target named is T2, Tyrosine-protein phosphatase non-receptor type 1 (Homo sapiens) (UniProt P18031).
T2 sequence (whole entry): T1 sequence (P18031 whole entry)
Put plainly: Inhibition of human recombinant PTP1B (1 to 322 residues) expressed in Escherichia coli by HPLC-PDA-HRMS-SPE-NMR analysis.

Assay [3] has as its target T1, Tyrosine-protein phosphatase non-receptor type 1. The experiment in a line: Inhibition of PTP1B (unknown origin) using pNPP as substrate incubated for 30 mins by photometric method.

Calls of active or inactive are those of the source. No cut-off for these calls is given here.

On to `CCCCCCC[C@@H]1[C@@H](/C(=C/C=C/C(=O)O)CO)[C@@H](/C=C/C(=O)O)C(COC(C)=O)=C[C@H]1CCCCCCC`, for which, in assay [1], the half-maximal inhibitory concentration (IC50) (as a rule, the point on the concentration scale where inhibition reaches its midpoint) came out at 30 µM. Also, in assay [2], the inhibition result was “Active”.
Consider `CCCCCCC[C@H]1[C@H](/C(=C/C=C/C(=O)O)COC(C)=O)[C@@H](/C=C/C(=O)O)C(COC(C)=O)=C[C@H]1CCCCCCC`, for which the IC50 in assay [1] worked out at 12 µM. The inhibition entry in assay [2] is “Active”.
For `CCCCCCCCCCCCCCCCCC(=O)O` [STEARIC ACID], in assay [3], the half-inhibitory concentration (IC50) was 2.3 µM.
On the same count and under the same terms, next, `CCCCCC/C=C\CCCCCCCC(=O)O` [PALMITOLEIC ACID]: 6.4 µM.
Turning to `CCCCCCCCCCCCCCCC(=O)C1=C(O)[C@@H](CO)OC1=O`, the 50% inhibitory concentration (IC50) in assay [1] amounted to 7.3 µM.
Same read-out and setting: next, `CCCCCCC/C=C/C(=C\C=C\C(=O)O)COC(C)=O`: 38 µM.
Turning to `CCCCCCC[C@H]1[C@H](/C(=C/C=C/C(=O)O)CO)[C@@H](/C=C/C(=O)O)C(COC(C)=O)=C[C@H]1CCCCCCC`, the IC50 in assay [1] was 2.4 µM. Further, the inhibition result in assay [2] was “Active”.
For the compound `CCCCCCCC/C=C\CCCCCCCC(=O)O` [OLEIC ACID], in assay [3], the concentration for half-maximal inhibition (IC50) was 6.2 µM.
Take `CCCCCCC/C=C/C(C)=C/C=C/C(=O)O`: the IC50 in assay [1] was 73 µM.
Same read-out and setting: next, `C=C(/C=C/CCCCCCC)CCCC(=O)O`: 144 µM.
Turning to `CCCCCCC/C=C/C(=C/C=C/C(=O)O)CO`, the half-maximal inhibitory concentration (IC50) in assay [1] came to 163 µM.
Still for that read-out and setting: next, `CCCCCCC/C=C/C(=C/C=C/C(=O)O)COC(C)=O`: 484 µM.
Take `CCCCCCCCCCCCCCCCCCCC(=O)O` [ARACHIDIC ACID]: in assay [3], the half-inhibitory concentration (IC50) stood at 1.6 µM.
Consider `CCCCCCC/C=C/C(=C/[C@H]1[C@H](C(=O)O)[C@H](CCCCCCC)C=C(COC(C)=O)[C@@H]1/C=C/C(=O)O)COC(=O)O`, for which the IC50 in assay [1] came to 66 µM. Further, in assay [2], the inhibition entry is “Active”.
The matching figures for `CCCCCCC[C@@H]1[C@@H](/C(=C/C=C/C(=O)O)COC(C)=O)[C@@H](/C=C/C(=O)O)C(COC(C)=O)=C[C@H]1CCCCCCC`: 12 µM and “Active”.
On to `CCCCCCCC/C=C\CCCCCCCCCC(=O)O`, for which the IC50 in assay [3] amounted to 1.4 µM.
For `CCCCCCC[C@@H]1[C@@H](/C(=C/C=C/C(=O)O)COC(C)=O)[C@@H](/C=C/C(=O)O)C(CO)=C[C@H]1CCCCCCC`, the half-inhibitory concentration (IC50) in assay [1] was 24 µM. Moreover, the inhibition entry in assay [2] was “Active”.
`CCCCCCCCCCCCCCCC(=O)O` [PALMITIC ACID] yielded a concentration for half-maximal inhibition (IC50) in assay [3] of 8.8 µM.
